Consider six molecules from patent US20250027072A1, “METHODS AND CO[…] TO ENGINEERED CANNABINOID RECEPTORS” (priority 2021, published 2025).

Usually EC50 stands for the midpoint of the concentration-response curve.

Assay [1] addresses T1, human Cannabinoid Receptor 1 (CB1R) (Homo sapiens, UniProt P21554).
T1 construct: syn-prepro (synthetic yeast pre-pro secretion leader) (N); expressed in transfected cells; host or cells: Saccharomyces cerevisiae BY4741-derived strain (ste2, sst2, far1 knocked out); Gpa1-Gαi3 chimera
The assay is classed as cell-based.

For the next assay, the target named is T2, CB1R (Homo sapiens, UniProt P21554).
T2 construct: host or cells: mouse AtT-20 cells
To be noted: Banister et al., 2015; read-out: EC50 with CB1R in mouse AtT-20 neuroblastoma cells; cited from earlier work.

Assay [2] has as its target T3, human cannabinoid receptor type II (CB2R) (Homo sapiens, UniProt P34972). As to the kind of experiment: cell-based. Format: cell-based. Further details: Normalized Activity at 1 μM, CB2R; other: PINACA compounds, 1 μM; Normalized Activity at 1 μm, CB2R; other: 5-fluoro PB-22 isomers, 1 μm; other: MFα-CB2R, ST03 sterol strain, pH 5.8; activity against CB2R; other: at 10 nM, dose response; preference at CB2R of ADB-BINACA over AB-PINACA; signaling at CB2R in synthetic cannabinoid screen; fused on or other part: yeast mating factor alpha (MFα) pre-pro leader fused at the N-terminus as a trafficking signal. As to conditions: for EC50: MFα-CB2R, ST03 sterol strain, pH 5.8, read-out: EC50 at CB2R, dose response. How it is done:
(§1) To efficiently transduce signals from the human machinery to the yeast pathway, the yeast 5 C-terminal residues of the G-alpha gene GPA1 were replaced with the sequence of the Gαi3 human G-alpha variant as previously described (Brown et al. 2000). ZsGreen1 was used to report on the activity of the pathway, integrating it into the genome in place of the pheromone-inducible Fig1 gene (FIG. 14A).
(§2) Yeast colonies were picked and grown overnight to saturation in pH 5.8 SD-His media in a 2.2 mL deep well plate (Axygen) grown in a plate-shaking incubator (30° C., 1000 rpm, 3 mm orbital). In the morning cultures were diluted 1:10 or 1:25 in SD-His media buffered to pH 7.1 with 100 mM MOPSO (unless otherwise specified). Ligands were added to the culture and incubated with shaking for 8 hours. Cells were then washed three times with ice-cold Tris buffer (pH 7) and diluted 1:20 for cytometry. All cytometry was performed on a Sony SA3800 spectral analyzer. Each sample was tested for 10,000 events, and read at a rate of 1,000 events per second. All assays as reported here were filtered only for singlet populations.

For assay [3], the system named is human Cannabinoid Receptor 1 (CB1R). The assay is classed as cell-based.
In assay [4] the test system is human cannabinoid receptor type II (CB2R). As to the kind of experiment: cell-based. Format: cell-based. How it is done: as §1, §2
Assay [5] addresses T3, human cannabinoid receptor type II (CB2R). As to the kind of experiment: cell-based. The assay is classed as cell-based. As to conditions: Ste2 signal sequence CB2R; read-out: EC50, dose response with CB2R. How it is done: as §1, §2
Assay [6] has the same target. As to the kind of experiment: cell-based. Format: cell-based. On the set-up: other: syn-prepro CB2R; "Syn=synthetic pre-pro"; fused on or other part: synthetic yeast pre-pro secretion leader (syn-prepro) fused at the N-terminus. As to conditions: EC50, dose response with CB2R, syn-prepro CB2R. How it is done: as §1, §2
Assay [7] shares this target. Put plainly: cell-based. Format: cell-based. Further details: other: MF alpha leader CB2R; "MF-α=mating factor alpha pre-pro"; fused on or other part: yeast mating factor alpha (MFα) pre-pro leader fused at the N-terminus. To be noted: EC50, dose response with CB2R, MF alpha leader CB2R. How it is done: as §1, §2
Assay [8] shares this target. Put plainly: cell-based. Format: cell-based. On the set-up: MFα (mating factor alpha) pre-pro leader (N); expressed in transfected cells; host or cells: Saccharomyces cerevisiae BY4741-derived biosensor strain (Gpa1-Gαi3 chimera, ZsGreen reporter); sterol-modified strain ST03 for the screens, pH 5.8. To be noted: EC50, dose response with CB2R, WT CB2R (no leader). The method, then:
as §1, §2

“And” between values parts separate entries of the source, which are not always exact repeats. Equal entries are not always repeated. Where two headings read alike, the source gives them in different places.

T3 sequence (P34972 whole entry, the tested form may be a part): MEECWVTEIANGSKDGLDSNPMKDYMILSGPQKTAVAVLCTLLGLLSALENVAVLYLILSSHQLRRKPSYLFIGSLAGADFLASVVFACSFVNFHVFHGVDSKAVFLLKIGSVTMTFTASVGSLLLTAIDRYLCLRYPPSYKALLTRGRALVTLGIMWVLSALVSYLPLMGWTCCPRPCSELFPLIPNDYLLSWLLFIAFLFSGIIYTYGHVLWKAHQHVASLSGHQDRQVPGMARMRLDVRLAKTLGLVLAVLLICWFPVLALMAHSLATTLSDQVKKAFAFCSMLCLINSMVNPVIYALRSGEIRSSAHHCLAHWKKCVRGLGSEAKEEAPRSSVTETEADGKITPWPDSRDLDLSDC
T2 sequence (P21554 whole entry): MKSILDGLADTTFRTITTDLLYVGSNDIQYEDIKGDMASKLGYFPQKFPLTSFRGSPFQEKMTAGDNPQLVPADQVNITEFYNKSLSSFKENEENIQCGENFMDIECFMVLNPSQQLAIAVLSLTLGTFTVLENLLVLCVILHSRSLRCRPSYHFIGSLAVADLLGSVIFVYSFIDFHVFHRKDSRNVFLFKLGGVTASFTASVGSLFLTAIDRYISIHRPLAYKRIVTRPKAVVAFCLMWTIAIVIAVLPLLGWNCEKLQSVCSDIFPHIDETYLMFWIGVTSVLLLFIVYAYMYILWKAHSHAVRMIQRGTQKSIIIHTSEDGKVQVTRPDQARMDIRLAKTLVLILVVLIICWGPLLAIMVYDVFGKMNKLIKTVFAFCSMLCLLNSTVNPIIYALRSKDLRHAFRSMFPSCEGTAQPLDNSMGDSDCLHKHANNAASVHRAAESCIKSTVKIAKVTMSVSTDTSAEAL

Consider `CCCCCn1nc(C(=O)N[C@H](C(N)=O)C(C)C)c2ccccc21` [AB-PINACA], for which the “relative fluorescence of the ACEA positive control at CB1R” value in assay [1] (compounds at 10 nM, 100 μM ACEA control) is on record as “strong signaling”. The “signaling at CB1R in synthetic cannabinoid screen relative to 100 μM ACEA positive control” value in [1] (compounds at 1 μM) is reported as “maximal fluorescence”. In addition, the half-maximal effective concentration (EC50) at CB1R, synthetic cannabinoid dose response in [1] (syn-prepro-Δ89-CB1R, wild type ergosterol strain) was “low nanomolar range”. Moreover, the EC50 is 0.0012 µM and 0.00121 µM in assay [1] (syn-prepro-Δ89-CB1R, wild type ergosterol strain, read-out: EC50 at CB1R, synthetic cannabinoid dose response); 0.0012 µM at CB1R; 0.107 µM in assay [2]. Moreover, the “signaling at CB2R in synthetic cannabinoid screen” value in assay [2] (compounds at 1 μM) was “high activity”.
Consider `CCCCC/C=C\C/C=C\C/C=C\C/C=C\CCCC(=O)NCCCl` [ACEA], for which, in assay [1], the “EC50, dose response with CB1R” value is “low μM range”. The “drop in sensitivity of Δ89 constructs compared to full-length counterparts” value in assay [3] is 3.6-3.8 fold and 3.8 fold.
As for `CC1(C)C(C(=O)c2cn(CC3CCOCC3)c3ccccc23)C1(C)C` [A-834735], in assay [4] (dual biosensor screen at 1 μM), the “receptor bias CB2R versus CB1R” value is listed as “CB2R-biased”. For the same molecule, the EC50 in assay [2] was 0.00742 µM.
Take `O=C(Oc1cccc2cnccc12)c1cn(CCCCCF)c2ccccc12` [5-fluoro PB-22 5-hydroxyisoquinoline isomer]: the “fold by which CB2 is favored over CB1” value in assay [4] (normalized activity at 1 μM, Table 3) was “roughly 2 fold”. Moreover, the EC50 in assay [2] is 0.216 µM.
For `CCCCC/C=C\C/C=C\C/C=C\C/C=C\CCCC(=O)OC(CO)CO` [2-AG, 2-arachidonoyl glycerol], the EC50 in assay [5] was determined as 0.15 µM; in assay [6], 1.54 µM; in assay [7], 0.16 µM; in assay [8], 0.07 µM.
Take `O=C(Oc1ccnc2ccccc12)c1cn(CCCCCF)c2ccccc12` [5-fluoro PB-22 4-hydroxyquinoline isomer]: the “factor by which CB1 is favored over CB2” value in [3] is recorded as about 3.
